Each structure is given as a SMILES string. Like-named read-outs stand apart in the source and are kept apart here.

In this assay the target is T1, human somatostatin receptor subtype 5 (Homo sapiens, UniProt P35346).
T1 construct: expressed in transfected cells
Put plainly: cAMP assay for SST5R (inhibition of cAMP in CHO-K1 cells). In kind it is cell-based. The conditions noted are these: inhibition of cAMP via human SST5 receptor, read-out: SST5 potency. From the text:
General overview: All five SSTR subtypes are Gi coupled G-protein coupled receptors (GPCRs) that lead to decreases in intracellular cyclic AMP (cAMP) when activated by an agonist. Therefore, measurement of intracellular cAMP levels can be used to assess whether compounds of the invention are agonists of SSTR subtypes (John Kelly, Troy Stevens, W. Joseph Thompson, and Roland Seifert, Current Protocols in Pharmacology, 2005, 2.2.1-2.2). One example of an intracellular cAMP assay is described below.
cAMP Assay Protocol for SST5R:
Four days prior to the assay, 2,000 Chinese hamster ovary cells (CHO-K1, ATCC #CCL-61) stably expressing the human somatostatin receptor subtype 5 are plated in each well of a 96-well tissue culture-treated plate in Ham's F12 growth media (ThermoFisher #10-080-CM) supplemented with 10% donor bovine serum (Gemini Bio-Products #100-506), 100 U/mL penicillin; 100 µg/mL streptomycin; 2 mM L-glutamine (Gemini Bio-Products #400-110) and 0.25 mg/mL G418 Sulfate (GoldBio #108321-42-2). The cells are cultured at 37° C., 5% CO2 and 95% humidity. On the day of the assay, the media is aspirated and the cells are treated with 50 μL of 1.6 μM NKH477 (Sigma #N3290) plus various dilutions of compounds of the invention in assay buffer [1× Hank's Balanced Salt Solution (ThermoFisher #SH3058802), 0.5 mM HEPES pH 7.4, 0.1% bovine serum albumin, 0.2 mM 3-Isobutyl-1-methylxanthine (IBMX, VWR #200002-790)]. The cells are incubated for 20 minutes at 37° C. […] The cells are treated with 50 μL of lysis buffer (HRTF cAMP kit, Cisbio) for 30 minutes and then the lysate is diluted to 250 μL with assay buffer. The lysate is transferred to 384-well plates and cAMP detection and visualization antibodies are added and incubated for 1-24 hours at room temperature. The time-resolved fluorescent signal is read with a Tecan M1000Pro multiplate reader. The intracellular cAMP concentrations are calculated by regression to a standard curve and are plotted vs. the concentration of the compounds of the invention and the EC50 of the compounds are calculated using standard methods. All data manipulations are in GraphPad Prism v6 or v7.
A general note: cAMP levels reflect the balance of adenylyl cyclase and phosphodiesterase activity.

T1 sequence (P35346 whole entry): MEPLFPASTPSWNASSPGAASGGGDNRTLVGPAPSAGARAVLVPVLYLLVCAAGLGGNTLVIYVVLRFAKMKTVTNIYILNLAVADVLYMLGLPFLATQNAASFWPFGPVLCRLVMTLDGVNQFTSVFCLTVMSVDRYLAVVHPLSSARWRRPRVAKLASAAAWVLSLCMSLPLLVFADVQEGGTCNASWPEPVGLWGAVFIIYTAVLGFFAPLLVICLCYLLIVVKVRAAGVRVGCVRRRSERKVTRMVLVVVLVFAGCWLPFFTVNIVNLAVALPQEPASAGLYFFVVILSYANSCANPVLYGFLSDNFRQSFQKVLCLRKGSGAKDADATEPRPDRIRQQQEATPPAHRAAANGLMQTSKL

For the compound `C[C@H](NC(=O)c1cnc(C#N)c(-c2cnoc2)c1N1CC[C@](C)(N)C1)C1CC1` [1-134, 4-[(3S)-3-amino-3-methylpyrrolidin-1-yl]-6-cyano-N-[(1S)-1-cyclopropylethyl]-5-(1,2-oxazol-4-yl)pyridine-3-carboxamide], the EC50 (Table A) is under 10 nM. Consider `C[C@H](NC(=O)c1cnc(C#N)c(-c2cc(F)cc(Cl)c2)c1N1C[C@@H](N)[C@H](F)C1)C1CC1` [1-138, 4-[(3R,4R)-3-amino-4-fluoropyrrolidin-1-yl]-5-(3-chloro-5-fluorophenyl)-6-cyano-N-[(1S)-1-cyclopropylethyl]pyridine-3-carboxamide], for which the EC50 (Table A) is under 10 nM.

`COc1ncc(C(=O)N[C@@H](C)C(F)(F)F)c(N2CC[C@](C)(N)C2)c1-c1cc(F)cc(F)c1` [1-140, 4-[(3S)-3-amino-3-methylpyrrolidin-1-yl]-5-(3,5-difluorophenyl)-6-methoxy-N-[(2S)-1,1,1-trifluoropropan-2-yl]pyridine-3-carboxamide]: under “Table A”, the EC50 is under 10 nM. The same measure, in the same setting: then `COc1ncc(C(=O)N[C@@H](C)C2CC2)c(N2CC[C@](C)(N)C2)c1-c1cc(F)cc(F)c1` [1-141, 4-[(3S)-3-amino-3-methylpyrrolidin-1-yl]-N-[(1S)-1-cyclopropylethyl]-5-(3,5-difluorophenyl)-6-methoxypyridine-3-carboxamide], with under 10 nM; and `C[C@H](NC(=O)c1cncc(-c2cncc(F)c2)c1N1CC[C@](C)(N)C1)C1CC1` [1-142, 4-[(3S)-3-amino-3-methylpyrrolidin-1-yl]-N-[(1S)-1-cyclopropylethyl]-5′-fluoro-[3,3′-bipyridine]-5-carboxamide], with under 10 nM; and `C[C@H](NC(=O)c1cncc(-c2cc(F)cc(OC(F)F)c2)c1N1CC[C@](C)(N)C1)C1CC1` [1-143, 4-[(3S)-3-amino-3-methylpyrrolidin-1-yl]-N-[(1S)-1-cyclopropylethyl]-5-[3-(difluoromethoxy)-5-fluorophenyl]pyridine-3-carboxamide], with under 10 nM. For `COc1ncc(C(=O)NC2CCC(F)(F)CC2)c(N2CC[C@](C)(N)C2)c1-c1cc(F)cc(F)c1` [1-144, 4-[(3S)-3-amino-3-methylpyrrolidin-1-yl]-N-(4,4-difluorocyclohexyl)-5-(3,5-difluorophenyl)-6-methoxypyridine-3-carboxamide], the EC50 (Table A) was under 10 nM. For `COc1ncc(C(=O)N[C@H]2CCC(F)(F)C2)c(N2CC[C@](C)(N)C2)c1-c1cc(F)cc(F)c1` [1-145, 4-[(3S)-3-amino-3-methylpyrrolidin-1-yl]-N-[(1S)-3,3-difluorocyclopentyl]-5-(3,5-difluorophenyl)-6-methoxypyridine-3-carboxamide], the EC50 (Table A) is under 10 nM.

In the case of `Cc1ncc(C(=O)NC2CC(F)(F)C2)c(N2CC[C@](C)(N)C2)c1-c1cc(F)cc(F)c1` [1-146, 4-[(3S)-3-amino-3-methylpyrrolidin-1-yl]-N-(3,3-difluorocyclobutyl)-5-(3,5-difluorophenyl)-6-methylpyridine-3-carboxamide], the EC50 (Table A) is under 10 nM. On the same count and under the same terms, then `Cc1ncc(C(=O)N[C@@H](C)C(F)(F)F)c(N2CC[C@](C)(N)C2)c1-c1cc(F)cc(F)c1` [1-147, 4-[(3S)-3-amino-3-methylpyrrolidin-1-yl]-5-(3,5-difluorophenyl)-6-methyl-N-[(2S)-1,1,1-trifluoropropan-2-yl]pyridine-3-carboxamide], with under 10 nM. On to `Cc1ncc(C(=O)N[C@@H](C)C2CC2)c(N2CC[C@](C)(N)C2)c1-c1cnn(C)c1` [1-148, 4-[(3S)-3-amino-3-methylpyrrolidin-1-yl]-N-[(1S)-1-cyclopropylethyl]-6-methyl-5-(1-methyl-1H-pyrazol-4-yl)pyridine-3-carboxamide], for which the EC50 (Table A) was under 10 nM. Regarding `C[C@H](NC(=O)c1cncc(-c2cccc(OC(F)F)c2)c1N1CC[C@](C)(N)C1)C1CC1` [1-149, 4-[(3S)-3-amino-3-methylpyrrolidin-1-yl]-N-[(1S)-1-cyclopropylethyl]-5-[3-(difluoromethoxy)phenyl]pyridine-3-carboxamide], the EC50 (Table A) is under 10 nM. Regarding `COc1ncc(C(=O)NC2CCC(F)(F)CC2)c(N2CC[C@H](N)C2)c1-c1cc(F)cc(F)c1` [1-150, 4-[(3S)-3-aminopyrrolidin-1-yl]-N-(4,4-difluorocyclohexyl)-5-(3,5-difluorophenyl)-6-methoxypyridine-3-carboxamide], the EC50 (Table A) was under 10 nM.

On to `COc1ncc(C(=O)N[C@@H](C)C(F)(F)F)c(N2CC[C@H](N)C2)c1-c1cc(F)cc(F)c1` [1-151, 4-[(3S)-3-aminopyrrolidin-1-yl]-5-(3,5-difluorophenyl)-6-methoxy-N-[(2S)-1,1,1-trifluoropropan-2-yl]pyridine-3-carboxamide], for which the EC50 (Table A) was under 10 nM. For `COc1ncc(C(=O)N[C@@H](C)C2CC2)c(N2CC[C@H](N)C2)c1-c1cc(F)cc(F)c1` [1-152, 4-[(3S)-3-aminopyrrolidin-1-yl]-N-[(1S)-1-cyclopropylethyl]-5-(3,5-difluorophenyl)-6-methoxypyridine-3-carboxamide], where the note is “Table A”, the EC50 is under 10 nM. Turning to `Cc1ncc(C(=O)N[C@@H](C)C2CC2)c(N2CC[C@](C)(N)C2)c1-c1cnn(CC(F)(F)F)c1` [1-155, 4-[(3S)-3-amino-3-methylpyrrolidin-1-yl]-N-[(1S)-1-cyclopropylethyl]-6-methyl-5-[1-(2,2,2-trifluoroethyl)-1H-pyrazol-4-yl]pyridine-3-carboxamide], the EC50 (Table A) was over 1000 nM and the EC50 (Table B) is over 1000 nM.

Consider `Cc1ncc(C(=O)N[C@@H](C)C2CC2)c(N2CC[C@](C)(N)C2)c1-c1cnn(C2CC2)c1` [1-156, 4-[(3S)-3-amino-3-methylpyrrolidin-1-yl]-5-(1-cyclopropyl-1H-pyrazol-4-yl)-N-[(1S)-1-cyclopropylethyl]-6-methylpyridine-3-carboxamide], for which the EC50 (Table A) lay within 10 to 100 nM.

Consider `C[C@H](NC(=O)c1cncc(-c2ccc3c(c2)OC(F)(F)O3)c1N1CC[C@](C)(N)C1)C1CC1` [1-175, 4-[(3S)-3-amino-3-methylpyrrolidin-1-yl]-N-[(1S)-1-cyclopropylethyl]-5-(2,2-difluoro-2H-1,3-benzodioxol-5-yl)pyridine-3-carboxamide], for which, under “Table A”, the EC50 is 10 to 100 nM. Regarding `COc1ncc(C(=O)N[C@@H](C)C(F)(F)F)c(N2CC[C@](C)(N)C2)c1-c1cnc(C)nc1` [1-185, 4-[(3S)-3-amino-3-methylpyrrolidin-1-yl]-6-methoxy-5-(2-methylpyrimidin-5-yl)-N-[(2S)-1,1,1-trifluoropropan-2-yl]pyridine-3-carboxamide], the EC50 (Table A) is 10 to 100 nM. With `C[C@H](NC(=O)c1cnc(C(F)(F)F)c(-c2cc(F)cc(F)c2)c1N1CC[C@](C)(N)C1)C1CC1` [1-189, 4-[(3S)-3-amino-3-methylpyrrolidin-1-yl]-N-[(1S)-1-cyclopropylethyl]-5-(3,5-difluorophenyl)-6-(trifluoromethyl)pyridine-3-carboxamide], where the note is “Table A”, the EC50 is under 10 nM. Same read-out and setting: the value for `C[C@H](NC(=O)c1cnc(OCC(F)(F)F)c(-c2cc(F)cc(F)c2)c1N1CC[C@](C)(N)C1)C1CC1` [1-190, 4-[(3S)-3-amino-3-methylpyrrolidin-1-yl]-N-[(1S)-1-cyclopropylethyl]-5-(3,5-difluorophenyl)-6-(2,2,2-trifluoroethoxy)pyridine-3-carboxamide] was under 10 nM; that for `C[C@H](NC(=O)c1cnc(OC2CC2)c(-c2cc(F)cc(F)c2)c1N1CC[C@](C)(N)C1)C1CC1` [1-191, 4-[(3S)-3-amino-3-methylpyrrolidin-1-yl]-6-cyclopropoxy-N-[(1S)-1-cyclopropylethyl]-5-(3,5-difluorophenyl)pyridine-3-carboxamide] was under 10 nM. In the case of `COc1ncc(C(=O)NC2CCC(C(F)(F)F)CC2)c(N2CC[C@H](N)C2)c1-c1cc(F)cc(F)c1` (stereo partly drawn) [1-193, 4-[(3S)-3-aminopyrrolidin-1-yl]-5-(3,5-difluorophenyl)-6-methoxy-N-[4-(trifluoromethyl)cyclohexyl]pyridine-3-carboxamide], the EC50 (Table A) is 100 to 1000 nM. For the compound `COc1ncc(C(=O)NC(C2CC2)C(F)(F)F)c(N2CC[C@H](N)C2)c1-c1cc(F)cc(F)c1` (stereo partly drawn) [1-194, 4-[(3S)-3-aminopyrrolidin-1-yl]-N-(1-cyclopropyl-2,2,2-trifluoroethyl)-5-(3,5-difluorophenyl)-6-methoxypyridine-3-carboxamide], the EC50 (Table A) is under 10 nM.

Take `N[C@H]1CCN(c2c(C(=O)NC3CCC(F)(F)CC3)cnc(OCC(=O)O)c2-c2cc(F)cc(F)c2)C1` [1-203, 2-({4-[(3S)-3-aminopyrrolidin-1-yl]-5-[(4,4-difluorocyclohexyl)carbamoyl]-3-(3,5-difluorophenyl)pyridin-2-yl}oxy)acetic acid]: where the note is “Table A”, the EC50 was under 10 nM.

Values taken from patent publication US12600709B2, “Nonpeptide somatostatin type 5 receptor agonists and uses thereof” (Crinetics Pharmaceuticals, Inc., priority 2019, dated 2026).
